“Also recorded” adds a separate entry of the source. Where two headings read alike, the source gives them in different places.
Legend:
[1] = test system: PAF-induced aggregation in washed rabbit platelets (WRPs); settings: cited from earlier work
[2] = test system: thrombin-induced aggregation in washed rabbit platelets (WRPs); experiment: Inhibition of thrombin-induced aggregation in washed rabbit platelets; format: cell-based; settings: washed rabbit platelets, mean ± SD; for IC50: read-out: IC50 (μM) towards Thrombin in WRPs
Procedure: (§1) The biological experiments of PAF-induced platelet aggregation as well as the evaluation of the inhibitory effect of its synthetic compounds were performed according to thoroughly described protocols. The inhibitory effect of the starting materials (pqx = 2-(2′-pyridyl)quinoxaline, CrCl3 × 3H2O, MnCl2 × 4H2O, FeCl2 × 4H2O, CoCl2 × 6H2O, NiCl2 × 6H2O, CuCl2 × 2H2O, ZnCl2) and of the coordination compounds 1–7, towards PAF and thrombin related biological activities (aggregation experiments) in washed rabbit platelets (WRPs) was carried out according to previously described protocols. Briefly, in order to obtain the washed rabbit platelets (WRPs), platelet-rich plasma was washed on Ficoll–Paque cushions and adjusted to […] platelets/mL of Tyrode’s buffer, pH 7.2. The dilution of PAF was prepared using pyrogen-free 0.15 M NaCl containing 2.5 mg/mL of crystallized bovine serum albumin, required for dispersion of PAF. The compounds under investigation were firstly dissolved in the appropriate solvent that is: DMSO for pqx (0.010 M), H2O for CrCl3 × 3H2O (0.016 M), H2O for MnCl2 × 4H2O (0.004 M), DMSO-EtOH (4/1, v/v)) for FeCl2 × 4H2O (0.014 M), H2O for CoCl2 × 6H2O (0.010 M), H2O for NiCl2 × 6H2O (0.010 M), H2O for CuCl2 × 2H2O (0.008 M), H2O for ZnCl2 (0.013 M), DMSO for 1 (0.017 M), DMSO for 2 (0.010 M0, DMSO for 3 (0.004 M), DMSO for 4 (0.002 M), DMSO for 5 (0.003 M), DMSO-EtOH-H2O (25/1/1, v/v)) for 6 (0.006 M), DMSO for 7 (0.002 M) and aliquots of these solutions were then added in solutions (2.5 mg BSA/mL) of saline.
The experiment on the inhibitory effect of each compound of interest against the washed rabbit platelets (WRPs) aggregation was carried out as per the already described method. The platelets were from male New Zealand white rabbits (about 20), individually housed in stainless steel cages in an air-conditioned room (19 ± 1 °C, 55 ± 5% humidity on a 12/12 h artificial light/dark cycle). Blood samples were drawn from the main ear artery. Microliters of PAF in a final concentration of about 10^–10 M were added to the cuvette of the aggregometer, and the height of the platelet aggregation was monitored. The platelet aggregation induced by PAF, or thrombin was measured before (considered as 0% inhibition) and after the addition of various concentrations of the examined sample, creating a linear curve of percentage inhibition (ranging from 0 to 100%) versus different concentrations of the sample. From this curve, the concentration of the sample that inhibited 50% PAF-induced aggregation was calculated, and this value was defined as IC50 (Inhibitory concentration for 50% Inhibition). Dithiothreitol-insensitive PAF choline phosphotransferase, lyso-PAF:acetyl-CoA acetyltransferase and PAF-acetylhydrolase activity assays were performed on the homogenates of rabbit leukocytes while the activity of lipoprotein-associated phospholipase A2 was assessed on plasma as previously described. The experiments were performed in a model 400 vs. aggregometer of Chrono-Log (Havertown, PA, USA) coupled to a Chrono-Log recorder at 37 °C with constant stirring at 1200 rpm. The separation of platelets was performed with centrifugations in a 3L-R Heraeus Labofuge (Hvanau, Germany), a 400R Heraeus Labofuge and an RC-5B Sorvall (Newtown, CT, USA) refrigerated super speed centrifuge. Bovine serum albumin (BSA), PAF and analytical solvents for the biological assays were purchased from Sigma. Standard active thrombin was purchased from Sigma, St. Lewis, MO, USA. The measurements were performed in duplicates for each sample concentration in three different WRP preparations, in order to ensure reproducibility. All experiments were also followed by appropriate control tests of the solvent used (saline solution of BSA, DMSO aliquots in a saline solution of BSA-2.5 mg BSA/mL saline- or just in saline), in WRPs. […]

[3] = test system: PAF-induced aggregation in washed rabbit platelets (WRPs); experiment: Inhibition of PAF-induced aggregation in washed rabbit platelets; format: cell-based; settings: washed rabbit platelets; mean ± SD; read-out: IC50 (μM) towards PAF in WRPs
Procedure: as §1, with “The inhibitory effect of the starting materials (pqx = 2-(2′-pyridyl)quinoxaline, CrCl3 × 3H2O, MnCl2 × 4H2O, FeCl2 × 4H2O, CoCl2 × 6H2O, NiCl2 × 6H2O, CuCl2 × 2H2O, ZnCl2) and of the coordination compounds 1–7, towards PAF and thrombin related biological activities (aggregation experiments) in washed rabbit platelets (WRPs) was carried out according to previously described protocols.” left out
The experiment on the inhibitory effect of each compound of interest against the washed rabbit platelets (WRPs) aggregation was carried out as per the already described method. The platelets were from male New Zealand white rabbits (about 20), individually housed in stainless steel cages in an air-conditioned room (19 ± 1 °C, 55 ± 5% humidity on a 12/12 h artificial light/dark cycle). Blood samples were drawn from the main ear artery. Microliters of PAF in a final concentration of about 10^–10 M were added to the cuvette of the aggregometer, and the height of the platelet aggregation was monitored. The platelet aggregation induced by PAF, or thrombin was measured before (considered as 0% inhibition) and after the addition of various concentrations of the examined sample, creating a linear curve of percentage inhibition (ranging from 0 to 100%) versus different concentrations of the sample. From this curve, the concentration of the sample that inhibited 50% PAF-induced aggregation was calculated, and this value was defined as IC50 (Inhibitory concentration for 50% Inhibition). Dithiothreitol-insensitive PAF choline phosphotransferase, lyso-PAF:acetyl-CoA acetyltransferase and PAF-acetylhydrolase activity assays were performed on the homogenates of rabbit leukocytes while the activity of lipoprotein-associated phospholipase A2 was assessed on plasma as previously described. The experiments were performed in a model 400 vs. aggregometer of Chrono-Log (Havertown, PA, USA) coupled to a Chrono-Log recorder at 37 °C with constant stirring at 1200 rpm. The separation of platelets was performed with centrifugations in a 3L-R Heraeus Labofuge (Hvanau, Germany), a 400R Heraeus Labofuge and an RC-5B Sorvall (Newtown, CT, USA) refrigerated super speed centrifuge. Bovine serum albumin (BSA), PAF and analytical solvents for the biological assays were purchased from Sigma. […] The measurements were performed in duplicates for each sample concentration in three different WRP preparations, in order to ensure reproducibility. All experiments were also followed by appropriate control tests of the solvent used (saline solution of BSA, DMSO aliquots in a saline solution of BSA-2.5 mg BSA/mL saline- or just in saline), in WRPs. In the aggregometer cuvette (250 to 500 μL) the overall amount of added DMSO, contained in the solution of the sample under study, is not higher than 2–3 μL. All results were expressed as mean ± standard deviation (SD). The t-test was employed to assess differences among the IC50 values of each metal complex against either the PAF- or thrombin-induced aggregation. Differences were statistically significant when the statistical p-value was smaller than 0.05.

[4] = test system: HeLa cells (cervical cancer cells); experiment: MTT cell viability assay, HeLa; format: cell-based, human; settings: 48 h exposure, mean ± SD
Procedure: (§2) In this report, cell viability tests were conducted in HEK293T and HeLa cancer cells by means of the colorimetric 3-(4,5-dimethylthiazol-2-yl)-2,5-diphenyl tetrazolium bromide (MTT) assay after exposure for 48 h. A HeLa cancer cell line was selected since it is widely used in cytotoxicity studies. For all complexes, a 10 mM stock solution in DMSO (H2O for cisplatin) was prepared and diluted appropriately to reach the final concentration reported in the Materials and Methods. The non-cancerous HEK293T cell line was used for comparison. The IC50 values of the first-row metal complexes, the pqx ligand and cisplatin, presented herein were calculated using a dose-response model, which was obtained from sigmoidal fitting of dose-response curves.
(§3) The HEK293T cell line (immortalized human embryonic kidney cells) was obtained from the Biomedical Research Foundation Academy of Athens (BRFAA), Athens, Greece and the HeLa cell line (cervical cancer cells) was obtained from the National Centre For Scientific Research Demokritos (NCSR Demokritos), Athens, Greece.
(§4) Pqx metal complexes were diluted in stock solutions of 10 mM in dimethyl sulfoxide (DMSO). A similar concentration of cisplatin dissolved in H2O was used. HEK293T and HeLa cells were cultured in Dulbecco’s modified Eagle’s medium (DMEM) with high glucose (Biosera, Nuaille, France) supplemented with 10% fetal bovine serum at 37 °C and 5% CO2. Cells were seeded in sterile tissue culture 96-well plates (SPL Life Science, Pochon, Republic of Korea) at a density of 3000 cells per well. After 24 h, the medium was removed and replaced with fresh media containing various concentrations (0.01 μΜ, 0.1 μΜ, 1 μΜ, 10 μΜ, 25 μΜ, 40 μΜ, 55 μΜ, 70 μΜ, 85 μΜ and 100 μΜ) of the compounds to be tested and was further incubated for 48 h at 37 °C. Dimethyl sulfoxide (DMSO) was used as a vehicle at ≤1%. To measure cytotoxicity, a culture medium containing the compounds (or DMSO) was removed, and 100 μL of 0.5 mg/mL MTT reagent (Applichem, Darmstadt, Germany) diluted in DMEM was added to the cells for 3 h at 37 °C. After 3 h incubation in identical conditions, MTT was removed and 200 μL of DMSO was added. Absorbance values of formazan were measured at 540 nm using a BioTek Synergy H1 microplate reader (Agilent, Santa Clara, CA, USA). All compounds were tested in triplicate. The results were statistically analyzed using the nonlinear regression by GraphPad PRISM (Version 9).

[5] = test system: HEK293T (human embryonic kidney cells); experiment: MTT cell viability assay, HEK293T; format: cell-based; settings: 48 h exposure, mean ± SD
Procedure: as §2, §3, §4

[6] = test system: thrombin-induced aggregation in washed rabbit platelets (WRPs); settings: cited from earlier work
[7] = known PAF antagonists quoted for comparison, read-out: IC50 against the PAF-induced aggregation in WRPs
[8] = earlier pqx complexes, ref [17],[25], read-out: IC50 against the PAF-induced aggregation

C[C@@H]1C(=O)O[C@H]2C[C@@]34[C@H]5C[C@@H](C(C)(C)C)[C@]36[C@@H](OC(=O)[C@@H]6O)O[C@@]4(C(=O)O5)[C@]21O [BN 52020]
IC50 [1, 7]: 3600 nM

CC1C(=O)OC2C(O)C34C5CC(C(C)(C)C)C36C(OC(=O)C6O)OC4(C(=O)O5)C12O (stereo not shown) [BN 52021]
IC50 [1, 7]: 9700 nM

O.O.O.O.O.O.[Cl-].[Cl-].[Co+2] [CoCl2 × 6H2O]
IC50 (μM) towards Thrombin in WRPs [2]: no inhibition | IC50 (μM) towards PAF in WRPs ([1]; washed rabbit platelets, ref [60]): negligible effects; also recorded: no inhibition ^1

[Cl][Cr]([Cl])[Cl] [CrCl3 × 6H2O, reference compound]
IC50 [2]: 611 ± 67 µM | IC50 [3]: 537 ± 59 µM

[Cl][Cu][Cl] [CuCl2 × 2H2O, reference compound]
IC50 [2]: 3.23 ± 0.39 µM | IC50 [3]: 22 ± 3 µM

[Cl][Fe][Cl] [FeCl2 × 4H2O, reference compound]
IC50 [2]: 13.8 ± 1.93 µM | IC50 [3]: 261 ± 37 µM

[Cl][Mn][Cl] [MnCl2 × 4H2O, reference compound]
IC50 [2]: 466 ± 47 µM | IC50 [3]: 302 ± 30 µM

[Cl][Ni][Cl] [NiCl2 × 6H2O, reference compound]
IC50 [2]: 4.9 ± 0.44 µM | IC50 [3]: 30 ± 2.7 µM

[Cl-].[Cl-].[Zn+2] [ZnCl2, reference compound]
IC50 [2]: 41.4 ± 3.7 µM | IC50 [3]: 30 ± 3 µM

N.N.[Cl][Pt][Cl] [cisplatin, reference compound]
IC50 [4]: 12.8 ± 1.48 µM | IC50 ([1]; ref [25], read-out: IC50 against PAF): 550 nM | IC50 [5]: 4.44 ± 1.29 µM

Cc1cncc(CN2CCC(=C3c4ccc(Cl)cc4CCc4cccnc43)CC2)c1 [rupatadine]
IC50 [1, 7]: 250 nM

[Rh(cod)(pqx)]Cl
IC50 [1, 8]: 15 nM

[Ru(dcbpyH2)2 (pqx))](NO3)2
IC50 [1, 8]: 180 nM | activity against thrombin ([6]; known Ru(II)-pqx complex, ref [17]): inactive

cis-[Ru(bpy)2(dcbpyH2)](PF6)2
IC50 ([6]; Ru(II) thrombin inhibitors, ref [30], read-out: IC50 against thrombin): 4.5 µM

mer-[Rh(pqx)Cl3(MeOH)]
IC50 [1, 8]: 125 nM

Source: publication PMC10574351, “First-Row Transition Metal Complexes Incorporating the 2-(2′-pyridyl)quinoxaline Ligand (pqx), as Potent Inflammatory Mediators: Cytotoxic Properties and Biological Activities against the Platelet-Activating Factor (PAF) and Thrombin” (Molecules, 2023)
